{
  "source": "patent US20260146041A1",
  "about": "“PANNEXIN-1 MODULATORS AND METHODS OF TREATING DISORDERS IN WHICH PANNEXIN-1 IS IMPLICATED” (Pannex Therapeutics Inc., priority 2022, published 2026)",
  "key": {"astrocytes": {"test_system": "astrocytes", "assay": "LPS-stimulated ATP release by astrocytes", "format": "cell-based, rat", "conditions": "5 or 50 μM, LPS stimulation, FIG. 15A", "procedure": "(§1) Cortical microglia/astrocytes mechanically dissociated from decapitated postnatal P2-P4 rat pups (CD strain) were seeded on P75 flasks (1 brain per flask) and cultured at 37° C., 5% CO2 for 10-20 days using DMEM media supplemented with 10% FBS and 1% pen/strep. On Day 10, microglia were collected by gently shaking and washing and purify by passing through 20 μm cell strainer and centrifugation.\n(§2) Re-suspended microglia were counted and plated onto poly-D-lysine coated 96-well culture plate at a density of 80,000 cells/well. Dislodged the remaining astrocytes (enriched astrocytes) and plated onto poly-D-lysine coated 96-well culture plate at a density of 50,000 cells/well. Overnighted microglia and/or astrocytes were treated with the PANX-1 blockers of the invention (5 or 50 μM), vehicle or control (carbenoxolone, CBX) and subjected to lipopolysaccharide stimulation. Extracellular ATP was assessed by multilabel plate reader Envision (ultrasensitive luminescence) using CellTiter-Glo (Promega) kit."}, "microglial cells": {"test_system": "microglial cells", "assay": "LPS-stimulated ATP release by microglial cells", "format": "cell-based, rat", "conditions": "5 or 50 μM, LPS stimulation, FIG. 15B", "procedure": "as §1, §2"}, "human PANX1 channels": {"biological_target": "T1, human PANX1 channels (Homo sapiens, UniProt Q96RD7)", "T1 construct": "expressed in transfected cells; host or cells: HEK293", "T1 sequence (Q96RD7 whole entry)": "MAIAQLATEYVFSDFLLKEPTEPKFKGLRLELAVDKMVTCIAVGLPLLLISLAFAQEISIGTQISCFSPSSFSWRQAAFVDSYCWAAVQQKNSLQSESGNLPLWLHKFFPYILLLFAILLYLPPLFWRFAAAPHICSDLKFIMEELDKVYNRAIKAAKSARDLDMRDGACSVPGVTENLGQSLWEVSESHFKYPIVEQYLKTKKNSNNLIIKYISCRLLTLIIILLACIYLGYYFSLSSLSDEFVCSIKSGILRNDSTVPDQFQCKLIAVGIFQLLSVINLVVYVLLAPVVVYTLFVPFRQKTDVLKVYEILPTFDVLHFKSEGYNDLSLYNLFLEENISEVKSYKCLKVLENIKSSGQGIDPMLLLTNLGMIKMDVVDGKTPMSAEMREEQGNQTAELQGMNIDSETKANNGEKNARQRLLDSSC", "assay": "Whole cell patch clamp assessment of PANX1 blockade on HEK293 cells stably expressing human PANX1 channels", "format": "cell-based", "conditions": "n=3", "procedure": "The assessment of PANX1 blockade was assessed on HEK293 cells stably expressing human PANX1 channels, as previously described by Xu et al (2012). Briefly, wild type cells were seeded in six-well plates and 12-16 hours later, 60-70% confluent cells were transfected with the plasmid encoding hPANX1 using calcium phosphate. After 48 hours post-transfection, geneticin (G418), 0.8 mg/ml in fresh medium, was added to the cells to select for transfected clones and the medium was changed every other day. Once confluent, cells were transferred into flasks and maintained in medium containing G418 (0.8 mg/ml) for a total of 4 weeks from the transfection date.\nTo validate those cells as a tool to screen potential PANX1 inhibitors a number of known PANX1 inhibitors were assessed by whole cell patch clamp and the voltage/current diagrams compared to current literature. The pipette solution was 151 mM […], 10 mM HEPES, 10 mM EGTA, 3 mM MgCl2. Cells were maintained in normal extracellular solution (NES: 140 mM NaCl, 5 mM KCl, 2 mM CaCl2, 1 mM MgCl2, 10 mM D-glucose, 10 mM HEPES, pH 7.3). Voltage ramps of 1 s duration between −80 mV and +80 mV were applied at 5 s intervals. Opening of Panx1 channel was induced by hypotonic shock, by replacing the isotonic extracellular solution (310 mOsml/l) with hypotonic extracellular solution (198 mOsml/l)."}, "mice [1]": {"test_system": "mice", "conditions": "administered before naloxone; cited from earlier work"}, "[2]": {"test_system": "human cortical brain tissue slices", "conditions": "cited from earlier work"}, "mice [3]": {"test_system": "mice", "conditions": "EAE MS model in mice; cited from earlier work"}, "Tg mice": {"test_system": "Tg mice", "conditions": "AD model, acute inhibition; cited from earlier work"}, "mice [4]": {"test_system": "mice", "conditions": "acute; cited from earlier work"}, "CRC cells": {"test_system": "CRC cells", "conditions": "cited from earlier work"}},
  "data": [
    {"compound": "CC1CCCC(n2cnc3c(N4CCCC4C)ncnc32)O1", "note": "(stereo not shown) [CMPD019]", "values": [
      {"measurement": "release of ATP by astrocytes", "setting": "astrocytes", "value": "prevented"},
      {"measurement": "release of ATP by microglial cells", "setting": "microglial cells", "value": "prevented"}
    ]},
    {"compound": "O=C(O)c1ccc2c(c1)c(C(=O)O)cn2CCCc1ccccc1", "note": "[CMPD043]", "values": [
      {"measurement": "release of ATP by astrocytes", "setting": "astrocytes", "value": "prevented"},
      {"measurement": "release of ATP by microglial cells", "setting": "microglial cells", "value": "prevented"}
    ]},
    {"compound": "O=C(O)c1ccn2c(n1)nc1ccc(Cl)cc12", "note": "[CMPD054]", "values": [
      {"measurement": "release of ATP by astrocytes", "setting": "astrocytes", "value": "prevented"},
      {"measurement": "release of ATP by microglial cells", "setting": "microglial cells", "value": "prevented"}
    ]},
    {"compound": "N[C@@H]1[C@H]2CN(c3nc4c(cc3F)c(=O)c(C(=O)O)cn4-c3cc(-c4nnn[nH]4)ccc3Cl)C[C@@H]12", "note": "[CMPD 053]", "values": [
      {"measurement": "release of ATP by astrocytes", "setting": "astrocytes", "value": "prevented"},
      {"measurement": "release of ATP by microglial cells", "setting": "microglial cells", "value": "prevented"}
    ]},
    {"compound": "CC1(C)[C@@H](OC(=O)CCC(=O)O)CC[C@]2(C)[C@H]3C(=O)C=C4[C@@H]5C[C@@](C)(C(=O)O)CC[C@]5(C)CC[C@@]4(C)[C@]3(C)CC[C@@H]12", "note": "[Carbenoxolone]", "values": [
      {"measurement": "inhibitory effect on PANX1", "setting": "human PANX1 channels; at 50 μM", "value": "inhibitory effect"}
    ]},
    {"compound": "CCCN(CCC)S(=O)(=O)c1ccc(C(=O)O)cc1", "note": "[Probenecid]", "values": [
      {"measurement": "withdrawal behaviours", "setting": "mice [1]", "value": "markedly reduced"},
      {"measurement": "ictal discharges", "setting": "[2]", "value": "blocked ictal discharges"},
      {"measurement": "clinical symptoms (disease score)", "setting": "mice [3]", "value": "reduced clinical symptoms"},
      {"measurement": "excitatory synaptic defects", "setting": "Tg mice", "value": "significantly reduced excitatory synaptic defects"}
    ]},
    {"compound": "CC(=O)S[C@@H]1CC2=CC(=O)CC[C@]2(C)[C@H]2CC[C@@]3(C)[C@@H](CC[C@@]34CCC(=O)O4)[C@H]12", "note": "[Spirolactone, Spironolactone]", "values": [
      {"measurement": "inhibitory effect on PANX1", "setting": "human PANX1 channels; at 3, 10, or 30 μM", "value": "inhibitory effect"},
      {"measurement": "blood pressure", "setting": "mice [4]", "value": "acutely lowers blood pressure"}
    ]},
    {"compound": "OC(c1cc(C(F)(F)F)nc2c(C(F)(F)F)cccc12)C1CCCCN1", "note": "(stereo not shown) [mefloquine]", "values": [
      {"measurement": "withdrawal behaviours", "setting": "mice [1]", "value": "markedly reduced"},
      {"measurement": "ictal discharges", "setting": "[2]", "value": "blocked ictal discharges"},
      {"measurement": "growth arrest and apoptosis of CRC cells", "setting": "CRC cells; CRC cells harboring phosphorylated p65, in culture and in mice", "value": "induced growth arrest and apoptosis"},
      {"measurement": "NF-κB inhibition", "setting": "CRC cells; colorectal cancer cells", "value": "NF-κB inhibitor"}
    ]}
  ]
}
